Values joined by “and” are separate entries in the source; they are usually repeats but may differ in a detail not shown here. Equal values may be shown once. Inconclusive results and toxic doses are left out.
Tested on: L1210 leukemia ip in BDF1 mice, survival T/C
Assay: NCI In Vivo Anticancer Drug Screen. Data for tumor model L1210 Leukemia (intraperitoneal) in B6D2F1 (BDF1) mice
Details: endpoint: mean survival time, higher = longer survival
Outline: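 Survival endpoint. Drug-treated group vs vehicle group, expressed as T divided by C. Tumor passaged by transplantation.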

[1] = dose: 100.0 mg/kg/injection, schedule: Q01DX009 (ip), vehicle: saline with Tween-80
[2] = dose: 200.0 mg/kg/injection, schedule: Q01DX009 (ip), vehicle: saline with Tween-80
[3] = dose: 400.0 mg/kg/injection, schedule: Q01DX009 (ip), vehicle: saline with Tween-80
[4] = dose: 100.0 mg/kg/injection, schedule: Q01DX001 (ip), vehicle: saline
[5] = dose: 200.0 mg/kg/injection, schedule: Q01DX001 (ip), vehicle: saline
[6] = dose: 400.0 mg/kg/injection, schedule: Q01DX001 (ip), vehicle: saline
[7] = dose: 100.0 mg/kg/injection, schedule: Q01DX009 (ip), vehicle: Klucel (hydroxypropylcellulose) (HPC)
[8] = dose: 200.0 mg/kg/injection, schedule: Q01DX009 (ip), vehicle: Klucel (hydroxypropylcellulose) (HPC)
[9] = dose: 400.0 mg/kg/injection, schedule: Q01DX009 (ip), vehicle: Klucel (hydroxypropylcellulose) (HPC)
[10] = dose: 100.0 mg/kg/injection, schedule: Q04DX003 (ip), vehicle: Klucel (hydroxypropylcellulose) (HPC)
[11] = dose: 200.0 mg/kg/injection, schedule: Q04DX003 (ip), vehicle: Klucel (hydroxypropylcellulose) (HPC)
[12] = dose: 400.0 mg/kg/injection, schedule: Q04DX003 (ip), vehicle: Klucel (hydroxypropylcellulose) (HPC)
[13] = dose: 100.0 mg/kg/injection, schedule: Q01DX001 (ip), vehicle: other
[14] = dose: 200.0 mg/kg/injection, schedule: Q01DX001 (ip), vehicle: other
[15] = dose: 400.0 mg/kg/injection, schedule: Q01DX001 (ip), vehicle: other
[16] = dose: 100.0 mg/kg/injection, schedule: Q01DX001 (ip), vehicle: carboxymethylcellulose (CMC)
[17] = dose: 400.0 mg/kg/injection, schedule: Q01DX001 (ip), vehicle: carboxymethylcellulose (CMC)

Structure (SMILES): COc1cc(C=O)cc(I)c1O
- T/C (dose: 12.5 mg/kg/injection, schedule: Q01DX009 (ip), vehicle: saline with Tween-80): 94 % of control
- T/C (dose: 25.0 mg/kg/injection, schedule: Q01DX009 (ip), vehicle: saline with Tween-80): 94 % of control
- T/C (dose: 50.0 mg/kg/injection, schedule: Q01DX009 (ip), vehicle: saline with Tween-80): 91 % of control

Structure (SMILES): CN(C)c1ccc(C#N)cc1
- T/C (dose: 1.5 mg/kg/injection, schedule: Q04DX002 (ip), vehicle: Klucel (hydroxypropylcellulose) (HPC)): 107 % of control
- T/C (dose: 3.1 mg/kg/injection, schedule: Q04DX002 (ip), vehicle: Klucel (hydroxypropylcellulose) (HPC)): 107 % of control
- T/C (dose: 6.25 mg/kg/injection, schedule: Q04DX002 (ip), vehicle: Klucel (hydroxypropylcellulose) (HPC)): 97 % of control and 111 % of control

Structure (SMILES): N[P+](c1ccccc1)(c1ccccc1)c1ccccc1
- T/C (dose: 12.5 mg/kg/injection, schedule: Q04DX002 (ip), vehicle: Klucel (hydroxypropylcellulose) (HPC)): 109 % of control
- T/C (dose: 25.0 mg/kg/injection, schedule: Q04DX002 (ip), vehicle: Klucel (hydroxypropylcellulose) (HPC)): 88 % of control

Structure (SMILES): CCOC(=O)/C(C)=N/Nc1nn[nH]n1
- T/C (dose: 100.0 mg/kg/injection, schedule: Q04DX003 (ip), vehicle: saline): 99 % of control
- T/C (dose: 200.0 mg/kg/injection, schedule: Q04DX003 (ip), vehicle: saline): 99 % of control
- T/C (dose: 400.0 mg/kg/injection, schedule: Q04DX003 (ip), vehicle: saline): 86 % of control

Structure (SMILES): COc1ccc(C(=O)CC(C#N)c2ccc3c(c2)OCO3)cc1OC (stereo not drawn)
- T/C [1]: 94 % of control
- T/C [2]: 94 % of control
- T/C [3]: 96 % of control

Structure (SMILES): O=C(O)COc1c(Br)cc(F)cc1Br
- T/C (dose: 100.0 mg/kg/injection, schedule: Q04DX002 (ip), vehicle: other): 103 % of control
- T/C (dose: 200.0 mg/kg/injection, schedule: Q04DX002 (ip), vehicle: other): 109 % of control and 90 % of control
- T/C (dose: 400.0 mg/kg/injection, schedule: Q04DX002 (ip), vehicle: other): 100 % of control and 86 % of control

Structure (SMILES): O=NC1C(Cl)C2CC1C1c3ccccc3C21 (stereo not drawn)
- T/C [4]: 95 % of control
- T/C (dose: 100.0 mg/kg/injection, schedule: Q01DX009 (ip), vehicle: saline): 89 % of control
- T/C [5]: 104 % of control
- T/C (dose: 200.0 mg/kg/injection, schedule: Q01DX009 (ip), vehicle: saline): 93 % of control
- T/C [6]: 93 % of control
- T/C (dose: 400.0 mg/kg/injection, schedule: Q01DX009 (ip), vehicle: saline): 89 % of control

Structure (SMILES): O=C1CC(N2CCOCC2)c2ccccc21 (stereo not drawn)
- T/C (dose: 100.0 mg/kg/injection, schedule: Q01DX001 (ip), vehicle: Klucel (hydroxypropylcellulose) (HPC)): 98 % of control
- T/C [7]: 102 % of control
- T/C (dose: 200.0 mg/kg/injection, schedule: Q01DX001 (ip), vehicle: Klucel (hydroxypropylcellulose) (HPC)): 92 % of control
- T/C [8]: 93 % of control
- T/C (dose: 400.0 mg/kg/injection, schedule: Q01DX001 (ip), vehicle: Klucel (hydroxypropylcellulose) (HPC)): 92 % of control
- T/C [9]: 91 % of control

Structure (SMILES): Cc1c(C)c2c(Cl)c3ccccc3nc2c2ccccc12
- T/C (dose: 50.0 mg/kg/injection, schedule: Q04DX003 (ip), vehicle: Klucel (hydroxypropylcellulose) (HPC)): 102 % of control
- T/C [10]: 100 % of control
- T/C [11]: 112 % of control
- T/C [12]: 100 % of control

Structure (SMILES): CCOC(=O)CC[P+](c1ccccc1)(c1ccccc1)c1ccccc1
- T/C (dose: 75.0 mg/kg/injection, schedule: Q01DX001 (ip), vehicle: saline): 103 % of control
- T/C (dose: 75.0 mg/kg/injection, schedule: Q04DX003 (ip), vehicle: saline): 106 % of control
- T/C (dose: 150.0 mg/kg/injection, schedule: Q01DX001 (ip), vehicle: saline): 109 % of control
- T/C (dose: 150.0 mg/kg/injection, schedule: Q04DX003 (ip), vehicle: saline): 105 % of control
- T/C (dose: 300.0 mg/kg/injection, schedule: Q01DX001 (ip), vehicle: saline): 101 % of control
- T/C (dose: 300.0 mg/kg/injection, schedule: Q04DX003 (ip), vehicle: saline): 107 % of control

Structure (SMILES): Cc1ccc(S(=O)(=O)Oc2c(Cl)c(Cl)c(Cl)c(Cl)c2Cl)cc1
- T/C [13]: 94 % of control
- T/C (dose: 100.0 mg/kg/injection, schedule: Q01DX009 (ip), vehicle: other): 92 % of control
- T/C (dose: 100.0 mg/kg/injection, schedule: Q04DX003 (ip), vehicle: other): 92 % of control
- T/C [14]: 102 % of control
- T/C (dose: 200.0 mg/kg/injection, schedule: Q01DX009 (ip), vehicle: other): 86 % of control
- T/C (dose: 200.0 mg/kg/injection, schedule: Q04DX003 (ip), vehicle: other): 93 % of control
- T/C [15]: 88 % of control
- T/C (dose: 400.0 mg/kg/injection, schedule: Q04DX003 (ip), vehicle: other): 90 % of control

Structure (SMILES): COc1cc(OC)c([N+](=O)[O-])cc1Cl
- T/C [7]: 96 % of control
- T/C [10]: 96 % of control
- T/C [8]: 96 % of control
- T/C [11]: 93 % of control
- T/C [9]: 92 % of control
- T/C [12]: 94 % of control

Structure (SMILES): CSc1nc(=O)[nH]nc1SCc1ccccc1
- T/C (dose: 22.0 mg/kg/injection, schedule: Q01DX015 (ip), vehicle: carboxymethylcellulose (CMC)): 95 % of control
- T/C (dose: 33.0 mg/kg/injection, schedule: Q01DX015 (ip), vehicle: carboxymethylcellulose (CMC)): 95 % of control
- T/C (dose: 44.0 mg/kg/injection, schedule: Q01DX001 (ip), vehicle: carboxymethylcellulose (CMC)): 100 % of control and 103 % of control
- T/C (dose: 50.0 mg/kg/injection, schedule: Q01DX015 (ip), vehicle: carboxymethylcellulose (CMC)): 92 % of control
- T/C (dose: 66.0 mg/kg/injection, schedule: Q01DX001 (ip), vehicle: carboxymethylcellulose (CMC)): 98 % of control and 102 % of control
- T/C (dose: 75.0 mg/kg/injection, schedule: Q01DX009 (ip), vehicle: saline): 103 % of control
- T/C (dose: 75.0 mg/kg/injection, schedule: Q01DX015 (ip), vehicle: carboxymethylcellulose (CMC)): 87 % of control
- T/C [16]: 95 % of control and 97 % of control and 284 % of control
- T/C [4]: 100 % of control
- T/C (dose: 150.0 mg/kg/injection, schedule: Q01DX001 (ip), vehicle: carboxymethylcellulose (CMC)): 96 % of control and 89 % of control
- T/C (dose: 150.0 mg/kg/injection, schedule: Q01DX009 (ip), vehicle: saline): 95 % of control
- T/C [5]: 97 % of control
- T/C (dose: 300.0 mg/kg/injection, schedule: Q01DX009 (ip), vehicle: saline): 97 % of control
- T/C [17]: 160 % of control
- T/C [6]: 95 % of control

Structure (SMILES): CCCCC(=O)N/N=C\c1cc([N+](=O)[O-])ccc1O
- T/C [16]: 91 % of control
- T/C (dose: 200.0 mg/kg/injection, schedule: Q01DX001 (ip), vehicle: carboxymethylcellulose (CMC)): 98 % of control
- T/C [17]: 87 % of control

Structure (SMILES): CCCCCCCCN1CCC(c2cccc(O)c2)C(C(=O)CC)C1 (stereo not drawn)
- T/C (dose: 6.0 mg/kg/injection, schedule: Q01DX009 (ip), vehicle: Klucel (hydroxypropylcellulose) (HPC)): 94 % of control and 102 % of control
- T/C (dose: 12.0 mg/kg/injection, schedule: Q01DX009 (ip), vehicle: Klucel (hydroxypropylcellulose) (HPC)): 94 % of control
- T/C (dose: 50.0 mg/kg/injection, schedule: Q01DX009 (ip), vehicle: Klucel (hydroxypropylcellulose) (HPC)): 87 % of control

Structure (SMILES): O=C(Cc1ccccc1)OCCc1ccccc1
- T/C [7]: 98 % of control and 105 % of control
- T/C [10]: 94 % of control and 98 % of control
- T/C [8]: 97 % of control and 89 % of control
- T/C [11]: 94 % of control and 100 % of control
- T/C [9]: 101 % of control and 104 % of control
- T/C [12]: 96 % of control and 100 % of control

Structure (SMILES): NC(=S)c1c(N)ncn1C1OC(CO)C(O)C1O (stereo not drawn)
- T/C (dose: 100.0 mg/kg/injection, schedule: Q01DX005 (ip), vehicle: saline): 92 % of control
- T/C (dose: 200.0 mg/kg/injection, schedule: Q01DX005 (ip), vehicle: saline): 90 % of control

Structure (SMILES): Nc1ccc2cc(S(=O)(=O)O)cc(S(=O)(=O)O)c2c1
- T/C (dose: 100.0 mg/kg/injection, schedule: Q04DX002 (ip), vehicle: saline): 95 % of control
- T/C (dose: 200.0 mg/kg/injection, schedule: Q04DX002 (ip), vehicle: saline): 102 % of control

Structure (SMILES): Cc1cc(=O)[nH]c(Nc2nc3cc(Cl)c(Cl)cc3[nH]2)n1
- T/C [1]: 92 % of control
- T/C [2]: 90 % of control
- T/C [3]: 97 % of control

Structure (SMILES): C=CCOC(=O)N[C@H](CC(C)C)C(N)=O
- T/C [13]: 94 % of control
- T/C [14]: 110 % of control
- T/C [15]: 100 % of control

Structure (SMILES): C=CN1C(=O)NC(C)(CC(C)C)C1=O (stereo not drawn)
- T/C [1]: 104 % of control
- T/C [2]: 91 % of control
- T/C [3]: 92 % of control

From PubChem BioAssay AID248 (DTP/NCI, 2004)
